# From patent US20250122202A1, “EGFR INHIBITOR, PREPARATION METHOD THEREFOR AND USE THEREOF” (SHANDONG NEW TIME PHARMACEUTICAL CO., LTD., priority 2021, published 2025)
# Target: EGFR-Del19/T790M/C797S kinase (Homo sapiens, UniProt P00533, C797S/T790M, form not given)
# Assay: In-vitro enzyme experiment 2 (HTRF kinase assay), EGFR Del19 T790M C797S
# Assay type: biochemical
# Conditions: read-out: enzyme inhibition IC50 (nM) EGFR-Del19/T790M/C797S
# Method: The specific experiment was as follows: • 1. […] Test method of activity of compound • a) a compound diluent was transferred to each well of an assay plate (784075, Greiner) using Echo 550; • b) the assay plate was sealed and centrifuged at 1,000 g for 1 min; • c) 2×EGFR (D770-N771 ins NPG T790M) was prepared in a 1× kinase buffer; • d) 5 μl of the 2×EGFR (D770-N771 ins NPG T790M) was added to a 384-well assay plate (784075, Greiner); • e) the assay plate was centrifuged at 1,000 g for 30 s and incubated at room temperature for 10 min; • f) 2× TK-substrate-biotin (2 μM) and ATP were added to the 1× kinase buffer and mixed; • g) the reaction was started after adding 5 μl of the TK-substrate-biotin (2 μM) and ATP mixture; • h) the assay plate was centrifuged at 1,000 g for 30 s; and the assay plate was sealed and incubated at room temperature for 40 min; • i) 4× Sa-XL 665 was prepared in an HTRF detection buffer; • j) 5 μl of the Sa-XL 665 and 5 μl of a TK-antibody-cryptate were added to each well of the assay plate; • k) the assay plate was centrifuged at 1,000 g for 30 s and incubated at room temperature for 1 h; and • l) fluorescence signals at 615 nm (cryptate) and 665 nm (XL665) were read on an Envision 2104 reader. • 3. Data analysis • 3.1 Calculation of ratio (665/615 nm) of each well • 3.2 Calculation of inhibition rate
# [formula] • 3.3 Calculation of IC50 value of compound and drawing dose-effect curve of compound • IC50 values were calculated using GraphPad 6.0 by applying a non-linear regression curve (dose-effect relationship-variable slope) of the logarithm of the compound concentration versus the inhibition rate.
# The preparation of the kinase buffer, the test method of the activity of the compound, and the data analysis referred to the relevant definitions in example 117, wherein step c) of the test method of the activity of the compound was replaced by preparing 2×EGFR Del19 T790M C797S in the 1× kinase buffer.
# EGFR-Del19/T790M/C797S kinase, sequence (P00533 25-1210 T790M/C797S limits assumed, form open): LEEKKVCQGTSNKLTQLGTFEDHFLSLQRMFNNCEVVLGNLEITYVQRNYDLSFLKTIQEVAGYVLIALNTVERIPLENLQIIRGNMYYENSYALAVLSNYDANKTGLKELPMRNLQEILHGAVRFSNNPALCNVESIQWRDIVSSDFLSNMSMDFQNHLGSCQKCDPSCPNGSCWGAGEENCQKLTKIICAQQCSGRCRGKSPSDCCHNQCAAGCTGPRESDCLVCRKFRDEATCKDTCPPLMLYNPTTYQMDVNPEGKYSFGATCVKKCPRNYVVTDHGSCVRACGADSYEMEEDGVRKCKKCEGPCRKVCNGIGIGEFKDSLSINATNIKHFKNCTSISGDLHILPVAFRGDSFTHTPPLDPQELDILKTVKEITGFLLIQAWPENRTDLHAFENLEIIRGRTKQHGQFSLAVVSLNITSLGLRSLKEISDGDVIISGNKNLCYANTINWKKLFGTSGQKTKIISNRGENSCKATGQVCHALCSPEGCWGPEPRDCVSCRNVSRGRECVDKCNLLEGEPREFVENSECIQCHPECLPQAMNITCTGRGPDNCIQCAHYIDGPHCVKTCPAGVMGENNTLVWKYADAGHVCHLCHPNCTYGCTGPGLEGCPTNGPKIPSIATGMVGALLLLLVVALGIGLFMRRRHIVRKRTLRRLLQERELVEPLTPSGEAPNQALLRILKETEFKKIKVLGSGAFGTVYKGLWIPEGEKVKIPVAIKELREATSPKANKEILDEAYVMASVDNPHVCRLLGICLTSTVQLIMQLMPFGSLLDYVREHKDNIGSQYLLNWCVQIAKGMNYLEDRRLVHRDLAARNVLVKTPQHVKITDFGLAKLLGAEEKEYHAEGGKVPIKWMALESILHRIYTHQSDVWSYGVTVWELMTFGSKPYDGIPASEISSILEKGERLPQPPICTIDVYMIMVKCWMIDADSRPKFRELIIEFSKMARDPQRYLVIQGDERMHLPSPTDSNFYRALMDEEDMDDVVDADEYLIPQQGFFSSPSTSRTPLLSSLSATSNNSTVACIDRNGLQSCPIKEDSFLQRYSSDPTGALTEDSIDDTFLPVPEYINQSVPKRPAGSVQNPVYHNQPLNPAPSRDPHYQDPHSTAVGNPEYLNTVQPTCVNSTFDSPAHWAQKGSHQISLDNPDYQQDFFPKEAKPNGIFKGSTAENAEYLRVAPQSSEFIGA
row,SMILES,IC50 [nM]
1,CO[C@H]1CC[C@H](Nc2nc(Nc3ccc(N4CCN(C)CC4)cc3)nc3[nH]cc(C(=O)c4ccc(F)cc4)c23)CC1 [Example 73],100 to 600
2,CN1CCN(c2ccc(Nc3nc(NC4CCN(S(=O)(=O)C5CC5)CC4)c4c(C(=O)c5ccc(F)cc5)c[nH]c4n3)cc2)CC1 [Example 63],100 to 600
3,CN1CCN(c2ccc(Nc3nc(OC4CCOCC4)c4c(C(=O)c5ccc(F)cc5)c[nH]c4n3)cc2)CC1 [Example 84],100 to 600
4,CN1CCC(Nc2nc(Nc3ccc(N4CCN(C)CC4)cc3)nc3[nH]cc(C(=O)c4ccc(F)cc4)c23)CC1 [Example 85],100 to 600
5,COc1cc(N2CCN(C)CC2)ccc1Nc1nc(N[C@H]2CC[C@H](CO)CC2)c2c(C(=O)c3ccc(F)cc3)c[nH]c2n1 [Example 80],100 to 600
6,COc1nn(C)cc1Nc1nc(N[C@H]2CC[C@H](CO)CC2)c2c(C(=O)c3ccc(F)cc3)c[nH]c2n1 [Example 112],100 to 600
7,O=C(c1ccc(F)c(F)c1F)c1c[nH]c2nc(Nc3ccc(N4CCOCC4)cc3)nc(N[C@H]3CC[C@H](CO)CC3)c12 [Example 108],100 to 600
8,CN1CCN(c2ccc(Nc3nc(N[C@H]4CCCOC4)c4c(C(=O)c5ccc(F)cc5)c[nH]c4n3)cc2)CC1 [Example 57],100 to 600
9,CN1CCN(c2ccc(Nc3nc(NC4(CO)CCCC4)c4c(C(=O)c5ccc(F)cc5)c[nH]c4n3)cc2)CC1 [Example 11],100 to 600
10,CN1CCN(c2ccc(Nc3nc(N[C@@H]4CCCOC4)c4c(C(=O)c5ccc(F)cc5)c[nH]c4n3)cc2)CC1 [Example 58],100 to 600
11,CN1CCN(c2ccc(Nc3nc(NC4CCCCC4)c4c(C(=O)c5ccc(F)cc5)c[nH]c4n3)cc2)CC1 [Example 41],100 to 600

# Continued, values first:
row,IC50 [nM],SMILES
1,10 to 100,O=C(c1ccc(F)cc1)c1c[nH]c2nc(Nc3ccc(N4CCOCC4)cc3)nc(N[C@@H]3CC[C@@H](CO)OC3)c12 [Example 94]
2,100 to 600,CN1CCN(c2ccc(Nc3nc(N[C@@H]4CCN(S(C)(=O)=O)C4)c4c(C(=O)c5ccc(F)cc5)c[nH]c4n3)cc2)CC1 [Example 49]
3,10 to 100,CN1CCN(c2ccc(Nc3nc(NC4(CO)CC4)c4c(C(=O)c5ccc(F)cc5)c[nH]c4n3)cc2)CC1 [Example 10]
4,100 to 600,CN1CCN(c2ccc(Nc3nc(N[C@@H]4CCOC4)c4c(C(=O)c5ccc(F)cc5)c[nH]c4n3)cc2)CC1 [Example 68]
5,100 to 600,CN1CCN(c2ccc(Nc3nc(N[C@H]4CCOC4)c4c(C(=O)c5ccc(F)cc5)c[nH]c4n3)cc2)CC1 [Example 67]
6,100 to 600,O=C(c1ccccc1)c1c[nH]c2nc(Nc3ccc(N4CCOCC4)cc3)nc(N[C@H]3CC[C@H](CO)CC3)c12 [Example 98]
7,100 to 600,CN1CCN(c2ccc(Nc3nc(N[C@@H]4CCCN(S(C)(=O)=O)C4)c4c(C(=O)c5ccc(F)cc5)c[nH]c4n3)cc2)CC1 [Example 50]
8,100 to 600,CN1CCN(c2ccc(Nc3nc(NCC4CCOCC4)c4c(C(=O)c5ccc(F)cc5)c[nH]c4n3)cc2)CC1 [Example 59]
9,100 to 600,O=C(c1ccc(F)cc1)c1c[nH]c2nc(Nc3ccc(N4CCOCC4)c(F)c3)nc(N[C@H]3CC[C@H](CO)CC3)c12 [Example 82]

# System: A549 EGFR-WT
# Assay: Cell proliferation inhibition experiment (CCK-8), A549
# Conditions: Homo sapiens, A549, 72 h, read-out: cell proliferation inhibition IC50 (μM) A549
row,SMILES,IC50 [µM]
1,"COc1cc(N2CCC(N3CCN(C)CC3)CC2)ccc1Nc1ncc(Cl)c(Nc2ccccc2P(C)(C)=O)n1 [Brigatinib, reference compound]",6.13
2,CN1CCN(c2ccc(Nc3nc(N[C@@H]4CCCN(S(=O)(=O)C5CC5)C4)c4c(C(=O)c5ccc(F)cc5)c[nH]c4n3)cc2)CC1 [Example 3],2.67

# Same assay, conditions: Homo sapiens, A549, 72 h, read-out: cell proliferation inhibition IC50 (μM) A549, 72 h, CCK-8; Table 5 numeric
row,SMILES,IC50 [µM]
1,O=C(c1cc(F)cc(F)c1)c1c[nH]c2nc(Nc3ccc(N4CCOCC4)cc3)nc(N[C@H]3CC[C@H](CO)CC3)c12 [Example 101],0.46
2,CN1CCN(c2ccc(Nc3nc(N[C@H]4CCCN(S(=O)(=O)C5CC5)C4)c4c(C(=O)c5ccc(F)cc5)c[nH]c4n3)cc2)CC1 [Example 21],0.61

# Next, values leading:
row,IC50 [µM],SMILES
1,0.29,O=C(c1ccc(F)cc1Cl)c1c[nH]c2nc(Nc3ccc(N4CCOCC4)cc3)nc(N[C@H]3CC[C@H](CO)CC3)c12 [Example 105]
2,0.92,COc1cc(N2CCOCC2)ccc1Nc1nc(N[C@H]2CC[C@H](CO)CC2)c2c(C(=O)c3ccc(F)cc3)c[nH]c2n1 [Example 81]
